Assay results: patent US20220033389A1, “INSECTICIDAL COMPOUNDS” (SYNGENTA CROP PROTECTION AG, priority 2018, published 2022)

Key:
Format in all cases: in vivo
[1] = tested on: Diabrotica balteata (Corn Root Worm); assay: Diabrotica balteata (corn root worm) on maize sprouts, spray; settings: 96 h, L2 larvae, 4 days after infestation, read-out: effect in at least one of the two categories (mortality or growth inhibition)
Description: Diabrotica balteata (Corn Root Worm)
Maize sprouts placed onto an agar layer in 24-well microtiter plates were treated with aqueous test solutions prepared from 10′000 ppm DMSO stock solutions by spraying. After drying, the plates were infested with L2 larvae (6 to 10 per well). The samples were assessed for mortality and growth inhibition in comparison to untreated samples 4 days after infestation.

[2] = tested on: Euschistus heros (Neotropical Brown Stink Bug); assay: Euschistus heros (neotropical brown stink bug) on soybean leaves, spray; settings: 120 h, N2 nymphs, 5 days after infestation, read-out: effect in at least one of the two categories (mortality or growth inhibition)
Description: Euschistus heros(Neotropical Brown Stink Bug) Soybean leaves on agar in 24-well microtiter plates were sprayed with aqueous test solutions prepared from 10′000 ppm DMSO stock solutions. After drying the leaves were infested with N2 nymphs. The samples were assessed for mortality and growth inhibition in comparison to untreated samples 5 days after infestation.

[3] = tested on: Plutella xylostella (Diamond Back Moth); assay: Plutella xylostella (diamond back moth), L2 larvae on artificial diet; settings: 120 h, 5 days after infestation, read-out: effect in at least one of the two categories (mortality or growth inhibition)
Description: (§1) Plutella xylostella (Diamond Back Moth)
(§2) 24-well microtiter plates with artificial diet were treated with aqueous test solutions prepared from 10′000 ppm DMSO stock solutions by pipetting. After drying, the plates were infested with L2 larvae (10 to 15 per well). The samples were assessed for mortality and growth inhibition in comparison to untreated samples 5 days after infestation.

[4] = tested on: Myzus persicae (Green Peach Aphid); assay: Myzus persicae (green peach aphid) feeding/contact activity; settings: 144 h, mixed ages, 6 days after infestation
Description: Myzus persicae (Green Peach Aphid): Feeding/Contact Activity
(§3) Sunflower leaf discs were placed onto agar in a 24-well microtiter plate and sprayed with aqueous test solutions prepared from 10′000 ppm DMSO stock solutions. After drying, the leaf discs were infested with an aphid population of mixed ages. The samples were assessed for mortality 6 days after infestation.

[5] = tested on: Spodoptera littoralis (Egyptian Cotton Leaf Worm); assay: Spodoptera littoralis (Egyptian cotton leaf worm) on cotton leaf discs; settings: foliar, 72 h, L1 larvae, 3 days after infestation
Description: Spodoptera littoralis (Egyptian Cotton Leaf Worm)
Cotton leaf discs were placed onto agar in 24-well microtiter plates and sprayed with aqueous test solutions prepared from 10′000 ppm DMSO stock solutions. After drying the leaf discs were infested with five L1 larvae. The samples were assessed for mortality, anti-feeding effect, and growth inhibition in comparison to untreated samples 3 days after infestation. Control of Spodoptera littoralis by a test sample is given when at least one of the categories mortality, anti-feedant effect, and growth inhibition is higher than the untreated sample.

[6] = tested on: Tetranychus urticae (Two-Spotted Spider Mite); assay: Tetranychus urticae (two-spotted spider mite) feeding/contact activity; settings: 192 h, mixed population (mobile stages), 8 days after infestation
Description: Tetranychus urticae (Two-Spotted Spider Mite): Feeding/Contact Activity
Bean leaf discs on agar in 24-well microtiter plates were sprayed with aqueous test solutions prepared from 10′000 ppm DMSO stock solutions. After drying the leaf discs were infested with a mite population of mixed ages. The samples were assessed for mortality on mixed population (mobile stages) 8 days after infestation.

[7] = tested on: Thrips tabaci (Onion Thrips); assay: Thrips tabaci (onion thrips) feeding/contact activity; settings: 144 h, mixed ages, 6 days after infestation
Description: Thrips tabaci (Onion Thrips) Feeding/Contact Activity
as §3, with “on” for “onto”, “in” for “in a”, “plates” for “plate”, “drying” for “drying,”, “a thrips” for “an aphid”

[8] = tested on: Plutella xylostella (Diamond Back Moth); assay: Plutella xylostella (diamond back moth), eggs on artificial diet; settings: 192 h, 8 days after infestation, read-out: effect in at least one of the two categories (mortality or growth inhibition)
Description: as §1
as §2, with “drying, Plutella eggs were pipetted through a plastic stencil onto a gel blotting paper and” for “drying,”, “plate was closed” for “plates were infested”, “it.” for “L2 larvae (10 to 15 per well).”, “8” for “5”

CCOC1=NOC(N(C(=O)c2ccc(C3=NO[C@@](c4cc(Cl)c(F)c(Cl)c4)(C(F)(F)F)C3)cc2C)C(=O)C2CC2)C1 (stereo partly drawn) [Compound A1, N-(cyclopropanecarbonyl)-4-[(5S)-5-(3,5-dichloro-4-fluoro-phenyl)-5-(trifluoromethyl)-4H-isoxazol-3-yl]-N-(3-ethoxy-4,5-dihydroisoxazol-5-yl)-2-methyl-benzamide]
≥ 80%: percent effect (mortality or growth inhibition) at 200 ppm [1] | percent effect (mortality or growth inhibition) at 200 ppm [2] | effect (mortality or growth inhibition) at 200 ppm [3] | mortality at 200 ppm [4] | percent control (mortality, anti-feedant effect or growth inhibition) at 200 ppm [5] | mortality at 200 ppm [6] | mortality at 200 ppm [7]

CCOC1=NOC(N(CN(C)C(=O)OC)C(=O)c2ccc(C3=NO[C@@](c4cc(Cl)c(F)c(Cl)c4)(C(F)(F)F)C3)cc2C)C1 (stereo partly drawn) [Compound A4, methyl N-[[[4-[(5S)-5-(3,5-dichloro-4-fluoro-phenyl)-5-(trifluoromethyl)-4H-isoxazol-3-yl]-2-methyl-benzoyl]-(3-ethoxy-4,5-dihydroisoxazol-5-yl)amino]methyl]-N-methyl-carbamate]
≥ 80%: percent effect (mortality or growth inhibition) at 200 ppm [1] | percent effect (mortality or growth inhibition) at 200 ppm [2] | percent effect (mortality or growth inhibition) at 200 ppm [8] | mortality at 200 ppm [4] | percent control (mortality, anti-feedant effect or growth inhibition) at 200 ppm [5] | mortality at 200 ppm [6] | mortality at 200 ppm [7]

CCOC1=NOC(N(COC(=O)C(C)(C)C)C(=O)c2ccc(C3=NO[C@@](c4cc(Cl)c(F)c(Cl)c4)(C(F)(F)F)C3)cc2C)C1 (stereo partly drawn) [Compound A3, [[4-[(5S)-5-(3,5-dichloro-4-fluoro-phenyl)-5-(trifluoromethyl)-4H-isoxazol-3-yl]-2-methyl-benzoyl]-(3-ethoxy-4,5-dihydroisoxazol-5-yl)amino]methyl 2,2-dimethylpropanoate]
≥ 80%: percent effect (mortality or growth inhibition) at 200 ppm [1] | percent effect (mortality or growth inhibition) at 200 ppm [2] | effect (mortality or growth inhibition) at 200 ppm [3] | mortality at 200 ppm [4] | percent control (mortality, anti-feedant effect or growth inhibition) at 200 ppm [5] | mortality at 200 ppm [6] | mortality at 200 ppm [7]

CCOC1=NOC(N(COC(=O)C2CC2)C(=O)c2ccc(C3=NO[C@@](c4cc(Cl)c(F)c(Cl)c4)(C(F)(F)F)C3)cc2C)C1 (stereo partly drawn) [Compound A7, [[4-[(5S)-5-(3,5-dichloro-4-fluoro-phenyl)-5-(trifluoromethyl)-4H-isoxazol-3-yl]-2-methyl-benzoyl]-(3-ethoxy-4,5-dihydroisoxazol-5-yl)amino]methyl cyclopropanecarboxylate]
≥ 80%: percent effect (mortality or growth inhibition) at 200 ppm [2] | percent effect (mortality or growth inhibition) at 200 ppm [8] | percent control (mortality, anti-feedant effect or growth inhibition) at 200 ppm [5]

CCOC1=NOC(N(COC(=O)C(C)C)C(=O)c2ccc(C3=NO[C@@](c4cc(Cl)c(F)c(Cl)c4)(C(F)(F)F)C3)cc2C)C1 (stereo partly drawn) [Compound A2, [[4-[(5S)-5-(3,5-dichloro-4-fluoro-phenyl)-5-(trifluoromethyl)-4H-isoxazol-3-yl]-2-methyl-benzoyl]-(3-ethoxy-4,5-dihydroisoxazol-5-yl)amino]methyl 2-methylpropanoate]
≥ 80%: percent effect (mortality or growth inhibition) at 200 ppm [1] | percent effect (mortality or growth inhibition) at 200 ppm [2] | effect (mortality or growth inhibition) at 200 ppm [3] | mortality at 200 ppm [4] | percent control (mortality, anti-feedant effect or growth inhibition) at 200 ppm [5] | mortality at 200 ppm [6] | mortality at 200 ppm [7]

CCOC1=NOC(N(COC(=O)N(C)C)C(=O)c2ccc(C3=NO[C@@](c4cc(Cl)c(F)c(Cl)c4)(C(F)(F)F)C3)cc2C)C1 (stereo partly drawn) [Compound A5, [[4-[(5S)-5-(3,5-dichloro-4-fluoro-phenyl)-5-(trifluoromethyl)-4H-isoxazol-3-yl]-2-methyl-benzoyl]-(3-ethoxy-4,5-dihydroisoxazol-5-yl)amino]methyl N,N-dimethylcarbamate]
≥ 80%: percent effect (mortality or growth inhibition) at 200 ppm [1] | percent effect (mortality or growth inhibition) at 200 ppm [2] | percent effect (mortality or growth inhibition) at 200 ppm [8] | percent control (mortality, anti-feedant effect or growth inhibition) at 200 ppm [5] | mortality at 200 ppm [6] | mortality at 200 ppm [7]

CCOC1=NOC(N(COC(=O)OC)C(=O)c2ccc(C3=NO[C@@](c4cc(Cl)c(F)c(Cl)c4)(C(F)(F)F)C3)cc2C)C1 (stereo partly drawn) [Compound A6, [[4-[(5S)-5-(3,5-dichloro-4-fluoro-phenyl)-5-(trifluoromethyl)-4H-isoxazol-3-yl]-2-methyl-benzoyl]-(3-ethoxy-4,5-dihydroisoxazol-5-yl)amino]methyl methyl carbonate]
≥ 80%: percent effect (mortality or growth inhibition) at 200 ppm [2] | percent effect (mortality or growth inhibition) at 200 ppm [8] | percent control (mortality, anti-feedant effect or growth inhibition) at 200 ppm [5]
